Results: US5958886A, “Carnitine-containing peptides and a method for using the same” (Sigma-Tau Pharmaceuticals, Inc., priority 1998, dated 1999)
Non-standard residues stand in square brackets, D forms with d. Residues, ends and D or L forms follow the SMILES beside them. Sar = CNCC(=O)O

Columns and labels:
[1] = target: T1, peptide carrier (Homo sapiens, UniProt P46059); test: Inhibition of glycyl-sarcosine transport via the peptide carrier in Caco-2 cells; type: cell-based
T1 construct: endogenous in cells; host or cells: Caco-2 cells
T1 sequence (P46059 1-708): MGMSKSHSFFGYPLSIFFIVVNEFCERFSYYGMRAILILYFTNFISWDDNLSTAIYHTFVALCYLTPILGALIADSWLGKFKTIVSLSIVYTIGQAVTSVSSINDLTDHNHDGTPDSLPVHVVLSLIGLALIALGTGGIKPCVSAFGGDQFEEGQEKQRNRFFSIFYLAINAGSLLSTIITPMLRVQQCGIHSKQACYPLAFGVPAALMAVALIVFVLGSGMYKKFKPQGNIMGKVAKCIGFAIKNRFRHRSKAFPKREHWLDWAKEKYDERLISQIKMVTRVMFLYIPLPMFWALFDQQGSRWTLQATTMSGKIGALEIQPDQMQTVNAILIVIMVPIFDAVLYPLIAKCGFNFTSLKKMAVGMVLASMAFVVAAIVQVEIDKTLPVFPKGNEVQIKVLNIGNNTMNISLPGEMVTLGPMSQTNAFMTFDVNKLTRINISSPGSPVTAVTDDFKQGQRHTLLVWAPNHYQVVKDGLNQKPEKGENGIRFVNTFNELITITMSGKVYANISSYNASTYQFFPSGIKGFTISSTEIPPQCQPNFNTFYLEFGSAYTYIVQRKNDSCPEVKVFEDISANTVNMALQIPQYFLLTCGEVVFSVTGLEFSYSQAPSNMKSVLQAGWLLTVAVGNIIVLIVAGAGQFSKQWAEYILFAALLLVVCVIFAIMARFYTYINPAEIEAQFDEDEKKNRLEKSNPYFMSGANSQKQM
Text: Carnityl-alanyl-alanine (CAA) is a peptide derivative of carnitine. In this experiment, the ability of CAA to compete with glycyl-sarcosine for transport via the peptide carrier was studied in Caco-2 cells. These cells are a good model system for the human intestine and they express the peptide carrier as does the human intestine. Glycyl-sarcosine is a standard substrate for the peptide carrier. If CAA is taken up by the peptide carrier it is expected to compete with glycyl-sarcosine for transport via the carrier and thus inhibit the transport.

[2] = target: T2, peptide carrier from human intestine (Homo sapiens, UniProt P46059); test: Charge transfer in Xenopus oocytes expressing the peptide carrier from human intestine (electrophysiological approach); type: cell-based; conditions: Xenopus oocytes expressing human intestinal peptide carrier; exposure to 10 mM
T2 construct: expressed in transfected cells; host or cells: Xenopus oocytes injected with peptide transporter mRNA
T2 sequence (P46059 1-708): T1 sequence (P46059 1-708)
Text: In this experiment, Xenopus (frog) oocytes which were made to express the peptide carrier from human intestine by injection of its peptide transporter mRNA were used to study the transport of CAA via the carrier. The peptide carrier uses the energy from a proton gradient and peptide transport via the carrier leads to a transfer of positive charge into the oocytes. This charge transfer can be monitored using the electrophysiological approach. If CAA is transported via the peptide carrier, exposure of the oocytes to CAA is expected to result in the transfer of positive charge.

inhibition of glycyl-sarcosine transport (in words) ([1]; Caco-2 cells, under similar conditions) | Molecule | charge transfer into oocytes (in words) [2] | inhibition of the transport of glycylsarcosine ([1]; Caco-2 cells, at 10 mM) [%] | inhibition of the transport of glycylsarcosine ([1]; Caco-2 cells, at 20 mM) [%] | affinity for the intestinal peptide carrier ([1]; concluded from the Caco-2 and oocyte experiments)
does not inhibit | C[N+](C)(C)CC(O)CC(=O)[O-] (stereo not drawn) [Free carnitine, Carnitine] | – | – | – | –
– | CN(CC(=O)O)C(=O)CN [glycyl-sarcosine, Glycyl-sarcosine, reference compound] (H-Gly-[Sar]-OH) | charge transfer found | – | – | –
– | Carnityl-alanyl-alanine [CAA] | induced charge transfer | 35 | 80 | millimolar range
